From US7495018B2, “Substituted 1,3-thiazole compounds, their production and use” (Takeda Pharmaceutical Company Limited, priority 2000, dated 2009)

Row | SMILES | melting point
1 | CCc1nc(-c2ccc(Cl)cc2)c(-c2ccnc(NC(=O)CC3CCCC3)c2)s1 [Example 90-2, N-[4-[4-(4-chlorophenyl)-2-ethyl-1,3-thiazol-5-yl]-2-pyridyl]cyclopentylacetamide] | 149 to 150 °C
2 | CC(=O)Nc1cc(-c2sc(C3CCN(C(C)=O)CC3)nc2-c2cccc(Cl)c2)ccn1 [Example 93, N-[4-[2-(1-acetylpiperidin-4-yl)-4-(3-chlorophenyl)-1,3-thiazol-5-yl]-2-pyridyl]acetamide] | 160 to 161 °C
3 | CCC(=O)Nc1cc(-c2sc(C3CCN(C(C)=O)CC3)nc2-c2cccc(Cl)c2)ccn1 [Example 94, N-[4-[2-(1-acetylpiperidin-4-yl)-4-(3-chlorophenyl)-1,3-thiazol-5-yl]-2-pyridyl]propionamide] | 174 to 175 °C
4 | CC(=O)Nc1cc(-c2sc(-c3ccc(S(C)(=O)=O)cc3)nc2-c2cccc(C)c2)ccn1 [Example 98-1, N-[4-[4-(3-methylphenyl)-2-(4-methylsulfonylphenyl)-1,3-thiazol-5-yl]-2-pyridyl]acetamide] | 222 to 223 °C
5 | CCC(=O)Nc1cc(-c2sc(-c3ccc(S(C)(=O)=O)cc3)nc2-c2cccc(C)c2)ccn1 [Example 98-2, N-[4-[4-(3-methylphenyl)-2-(4-methylsulfonylphenyl)-1,3-thiazol-5-yl]-2-pyridyl]propionamide] | 238 to 239 °C
6 | CSCCc1nc(-c2cccc(C)c2)c(-c2ccnc(N)c2)s1 [Example 99-1, 4-[4-(3-methylphenyl)-2-[2-(methylthio)ethyl]-1,3-thiazol-5-yl]-2-pyridylamine] | 98 to 99 °C
7 | Cc1cccc(-c2nc(C(C)OC(=O)c3ccccc3)sc2-c2ccnc(N)c2)c1 (stereo not shown) [Example 99-2, 1-[5-(2-amino-4-pyridyl)-4-(3-methylphenyl)-1,3thiazol-2-yl]ethyl benzoate] | 89 to 91 °C
8 | CCC(=O)Nc1cc(-c2sc(CCSC)nc2-c2cccc(C)c2)ccn1 [Example 102-1, N-[4-[4-(3-methylphenyl)-2-[2-(methylthio)ethyl]-1,3-thiazol-5-yl]-2-pyridyl]propionamide] | 85 to 86 °C
9 | CCC(=O)Nc1cc(-c2sc(CCSC)nc2-c2cccc(Cl)c2)ccn1 [Example 102-2, N-[4-[4-(3-chlorophenyl)-2-[2-(methylthio)ethyl]-1,3-thiazol-5-yl]-2-pyridyl]propionamide] | 91 to 92 °C
10 | CCC(=O)Nc1cc(-c2sc(CSC)nc2-c2cccc(Cl)c2)ccn1 [Example 102-3, N-[4-[4-(3-chlorophenyl)-2-(methylthio)methyl-1,3-thiazol-5-yl]-2-pyridyl]propionamide] | 118 to 119 °C
11 | CCC(=O)Nc1cc(-c2sc(C(C)(F)F)nc2-c2cccc(Cl)c2)ccn1 [Example 102-4, N-[4-[4-(3-chlorophenyl)-2-(1,1-difluoroethyl)-1,3-thiazol-5-yl]-2-pyridyl]propionamide] | 141 to 142 °C
12 | CCC(=O)Nc1cc(-c2sc(C(C)OC(=O)c3ccccc3)nc2-c2cccc(C)c2)ccn1 (stereo not shown) [Example 102-5, 1-[4-(3-methylphenyl)-5-(2-propionylamino-4-pyridyl)-1,3-thiazol-2-yl]ethyl benzoate] | 102 to 103 °C
13 | CCC(=O)Nc1cc(-c2sc(C(C)OC(=O)c3ccccc3)nc2-c2cccc(Cl)c2)ccn1 (stereo not shown) [Example 102-6, 1-[4-(3-chlorophenyl)-5-(2-propionylamino-4-pyridyl)-1,3-thiazol-2-yl]ethyl benzoate] | 124 to 127 °C
14 | CC(=O)Nc1cc(-c2sc(C(C)OC(=O)c3ccccc3)nc2-c2cccc(Cl)c2)ccn1 (stereo not shown) [Example 103-1, 1-[5-(2-acetylamino-4-pyridyl)-4-(3-chlorophenyl)-1,3-thiazol-2-yl]ethyl benzoate] | 152 to 154 °C
15 | CCOC(=O)Cc1nc(-c2cccc(Cl)c2)c(-c2ccnc(NC(C)=O)c2)s1 [Example 103-2, ethyl [5-(2-acetylamino-4-pyridyl)-4-(3-chlorophenyl)-1,3-thiazol-2-yl]acetate] | 99 to 100 °C
16 | CCC(=O)Nc1cc(-c2sc(C(C)O)nc2-c2cccc(Cl)c2)ccn1 (stereo not shown) [Example 105, N-[4-[4-(3-chlorophenyl)-2-(1-hydroxyethyl)-1,3-thiazol-5-yl]-2-pyridyl]propionamide] | 131 to 132 °C
17 | CCC(=O)Nc1cc(-c2sc(C(C)=O)nc2-c2cccc(Cl)c2)ccn1 [Example 107, N-[4-[2-acetyl-4-(3-chlorophenyl)-1,3-thiazol-5-yl]-2-pyridyl]propionamide] | 115 to 117 °C
18 | CCNC(=O)Nc1cc(-c2sc(CC)nc2-c2cccc(C)c2)ccn1 [Example 108, N-ethyl-N′-[4-[2-ethyl-4-(3-methylphenyl)-1,3-thiazol-5-yl]-2-pyridyl]urea] | 177 to 180 °C
19 | CC(=O)Nc1cc(-c2sc(C(C)OC(=O)c3ccccc3)nc2-c2cccc(C)c2)ccn1 (stereo not shown) [Example 110, 1-[5-(2-acetylamino-4-pyridyl)-4-(3-methylphenyl)-1,3-thiazol-2-yl]ethyl benzoate] | 110 to 113 °C
20 | CC(=O)Nc1cc(-c2sc(C(C)O)nc2-c2cccc(C)c2)ccn1 (stereo not shown) [Example 111-1, N-[4-[2-(1-hydroxyethyl)-4-(3-methylphenyl)-1,3-thiazol-5-yl]-2-pyridyl]acetamide] | 99 to 102 °C

Row | SMILES | melting point
21 | CC(=O)Nc1cc(-c2sc(C(C)O)nc2-c2cccc(Cl)c2)ccn1 (stereo not shown) [Example 111-2, N-[4-[4-(3-chlorophenyl)-2-(1-hydroxyethyl)-1,3-thiazol-5-yl]-2-pyridyl]acetamide] | 142 to 145 °C
22 | CC(=O)Nc1cc(-c2sc(C(C)=O)nc2-c2cccc(Cl)c2)ccn1 [Example 112, N-[4-[2-acetyl-4-(3-chlorophenyl)-1,3-thiazol-5-yl]-2-pyridyl]acetamide] | 180 to 183 °C
23 | CSCc1nc(-c2cccc(C)c2)c(-c2ccnc(N)c2)s1 [Example 113-1, 4-[4-(3-methylphenyl)-2-(methylthio)methyl-1,3-thiazol-5-yl]-2-pyridylamine] | 113 to 114 °C
24 | Cc1cccc(-c2nc(C(C)(F)F)sc2-c2ccnc(N)c2)c1 [Example 113-2, 4-[2-(1,1-difluoroethyl)-4-(3-methylphenyl)-1,3-thiazol-5-yl]-2-pyridylamine] | 140 to 141 °C
25 | COc1cccc(-c2nc(N)sc2-c2ccnc(F)c2)c1 [Example Compound 7-1, [5-(2-fluoro-4-pyridyl)-4-(3-methoxyphenyl)-1,3-thiazol-2-yl]amine] | 190 to 191 °C
26 | Nc1nc(-c2ccc(F)cc2)c(-c2ccnc(F)c2)s1 [Example Compound 7-3, [4-(4-fluorophenyl)-5-(2-fluoro-4-pyridyl)-1,3-thiazol-2-yl]amine] | 243 to 245 °C
27 | Cc1cccc(-c2nc(N)sc2-c2ccnc(C)c2)c1 [Example Compound 7-4, [4-(3-methylphenyl)-5-(2-methyl-4-pyridyl)-1,3-thiazol-2-yl]amine] | 205 to 206 °C
28 | Cc1cc(C)cc(-c2nc(N)sc2-c2ccnc(C)c2)c1 [Example Compound 7-5, [4-(3,5-dimethylphenyl)-5-(2-methyl-4-pyridyl)-1,3-thiazol-2-yl]amine] | 219 to 220 °C
29 | Cc1cccc(N2C=C(c3cc(C)nc(C)c3)SC2N)c1 (stereo not shown) [Example Compound 7-6, [5-(2,6-dimethyl-4-pyridyl)-3-(3-methylphenyl)-1,3-thiazol-2-yl]amine] | 214 to 216 °C
30 | Cc1cc(C)cc(-c2nc(N)sc2-c2cc(C)nc(C)c2)c1 [Example Compound 7-7, [4-(3,5-dimethylphenyl)-5-(2,6-dimethyl-4-pyridyl)-1,3-thiazol-2-yl]amine] | 256 to 258 °C
31 | Cc1cc(-c2sc(N)nc2-c2ccc(F)cc2)ccn1 [Example Compound 7-8, [4-(4-fluorophenyl)-5-(2-methyl-4-pyridyl)-1,3-thiazol-2-yl]amine] | 233 to 234 °C
32 | CNc1nc(-c2cccc(C)c2)c(-c2ccnc(F)c2)s1 [Example Compound 8, N-methyl-[5-(2-fluoro-4-pyridyl)-4-(3-methylphenyl)-1,3-thiazol-2-yl]amine] | 186 to 187 °C
33 | CNc1nc(-c2cccc(C)c2)c(-c2ccnc(C)c2)s1 [Example Compound 9, N-methyl-[4-(3-methylphenyl)-5-(2-methyl-4-pyridyl)-1,3-thiazol-2-yl]amine] | 164 to 165 °C
34 | Cc1cccc(-c2nc(N(C)C)sc2-c2ccnc(C)c2)c1 [Example Compound 10, N,N-dimethyl-[4-(3-methylphenyl)-5-(2-methyl-4-pyridyl)-1,3-thiazol-2-yl]amine] | 77 to 79 °C
35 | CCc1nc(-c2cccc(Cl)c2)c(-c2ccnc(F)c2)s1 [Example Compound 12, 2-ethyl-4-(3-chlorophenyl)-5-(2-fluoro-4-pyridyl)-1,3-thiazole] | 102 to 103 °C
36 | Cc1cccc(-c2nc(-c3ccccc3Cl)sc2-c2ccnc(C)c2)c1 [Example Compound 14-1, 2-(2-chlorophenyl)-4-(3-methylphenyl)-5-(2-methyl-4-pyridyl)-1,3-thiazole] | 83 to 84 °C
37 | Cc1cccc(-c2nc(-c3ccc(Cl)cc3)sc2-c2ccnc(C)c2)c1 [Example Compound 14-2, 2-(4-chlorophenyl)-4-(3-methylphenyl)-5-(2-methyl-4-pyridyl)-1,3-thiazole] | 104 to 105 °C
38 | Cc1cccc(-c2nc(-c3ccccc3F)sc2-c2ccnc(C)c2)c1 [Example Compound 14-3, 2-(2-fluorophenyl)-4-(3-methylphenyl)-5-(2-methyl-4-pyridyl)-1,3-thiazole] | 73 to 74 °C
39 | Cc1cccc(-c2nc(-c3ccc(F)cc3)sc2-c2ccnc(C)c2)c1 [Example Compound 14-4, 2-(4-fluorophenyl)-4-(3-methylphenyl)-5-(2-methyl-4-pyridyl)-1,3-thiazole] | 89 to 91 °C
40 | Cc1cccc(-c2nc(-c3ccc(F)cc3F)sc2-c2ccnc(C)c2)c1 [Example Compound 14-5, 2-(2,4-difluorophenyl)-4-(3-methylphenyl)-5-(2-methyl-4-pyridyl)-1,3-thiazole] | 90 to 91 °C
